Data reported in patent US20120142766A1, “SUBSTITUTED 1,3-DIOXANES AND THEIR USES” (EVOLVA SA, priority 2007, published 2012).
Several values for one entry are separate records, joined by “and”; a condition that tells them apart may be missing. Identical values can stand only once.

What was measured:
[1] = tested on: Human platelet rich plasma; test: TP receptor platelet aggregation, human (U-46619-induced); assay type: cell-based; conditions: 3 μM U-46619-induced
Procedure: Thrombosis Research 33:277-288.
TP Receptor Platelet Aggregation—Human:
Human (60±10 kg) platelet rich plasma
Assay. Inhibition of 3 μM U-46619-induced platelet aggregation Incubation Time, Temp: 5 minutes at 37° C. Incubation Buffer Trisodium Citrate (0.13 M)-treated fresh platelet rich plasma
Time of Assessment: 5 minutes
Quantification Method Optical Density Change

[2] = tested on: arterial thrombosis in a mouse model; test: Arterial thrombosis mouse model (FeCl3 on femoral artery); assay type: in vivo; conditions: i.v.
Procedure: The solutions are diluted 3.3-fold in saline and 100 μl/25 g is injected. Thus, the above-mentioned doses of 100 and 300 mg/kg of compound correspond to final doses of 30 and 100 mg/kg.
During the experiments, a soluble salt of the drug is provided (potassium salt of compound C), diluted in saline. Of this formulation, 100 μl/25 g is injected i.v. in the tail vein (dose of 100 mg/kg).
Solutions are injected (100 μl/25 g body weight) i.v. in the tail vein over 2 min to obtain doses of each compound of 30 mg/kg and 100 mg/kg. Aspirin is given the same way at a dose of 200 mg/kg. Clopidogrel is administered by oral gavage at a dose of 20 mg/kg at 6-7 hours prior to the experiment. The animals assigned to each group are matched for body weight. Mice are typically 8-10 weeks old males and are in a 100% Swiss genetic background.
The flow in each image is expressed as a percentage of that at the contralateral side, and data are averaged for all 120 images to determine total flow. The same analysis is performed for 10 min intervals (which gives essentially the same information as the area under the curve). […] Flow before treatment is recorded as 100%, and that in occluded arteries as 0%. At the end of the experiment, blood is collected on 0.01M citrate by heart puncture for determination of blood cell counts. Plasma is prepared by centrifugation and stored at −20° C. for determination of drug levels.
Statistical analysis for differences between two groups is performed by non-parametric Student t-test. Occlusion times >30 min were considered equal to 30 min for statistical analysis. Significance is set at p<0.05.

[3] = target: T1, Human Recombinant (E. coli) PPARgamma (Homo sapiens, UniProt P37231); test: PPAR gamma binding assay ([3H]-rosiglitazone); conditions: [3H]-rosiglitazone 10 nM
T1 construct: host or cells: E. coli
T1 sequence (P37231 1-505): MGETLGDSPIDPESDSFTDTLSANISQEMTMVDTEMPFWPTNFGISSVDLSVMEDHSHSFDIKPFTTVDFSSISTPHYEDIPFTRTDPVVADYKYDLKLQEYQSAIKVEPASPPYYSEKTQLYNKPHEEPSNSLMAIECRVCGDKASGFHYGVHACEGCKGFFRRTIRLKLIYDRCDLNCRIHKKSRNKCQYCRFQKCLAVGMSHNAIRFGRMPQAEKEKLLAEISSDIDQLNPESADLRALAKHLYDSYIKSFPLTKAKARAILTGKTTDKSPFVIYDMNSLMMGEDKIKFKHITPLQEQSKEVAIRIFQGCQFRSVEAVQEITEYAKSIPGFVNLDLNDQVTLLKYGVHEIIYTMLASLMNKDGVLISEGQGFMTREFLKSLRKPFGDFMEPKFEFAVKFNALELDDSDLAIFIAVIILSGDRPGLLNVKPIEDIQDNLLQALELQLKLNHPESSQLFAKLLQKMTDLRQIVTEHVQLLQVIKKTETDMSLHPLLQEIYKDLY
Procedure: Incubation: 120 min. at 4° C.
The results are expressed as a percent of control specific binding ((measured specific binding/control specific binding)×100) obtained in the presence of the test compounds. The IC50 values (concentration causing a half-maximal inhibition of control specific binding) and Hill coefficients (nil) were determined by non-linear regression analysis of the competition curves generated with mean replicate values using Hill equation curve fitting (Y=D+[(A−D)/(1+(C/C50)nH)], where Y=specific binding, D=minimum specific binding, A=maximum specific binding, C=compound concentration, C50=IC50, and nH=slope factor). This analysis was performed using a software developed at Cerep (Hill software) and validated by comparison with data generated by the commercial software SigmaPlot® 4.0 for Windows® (© 1997 by SPSS Inc.). The inhibition constants (Ki) were calculated using the Cheng Prusoff equation (Ki=IC50/(1+(L/KD)), where L=concentration of radioligand in the assay, and KD=affinity of the radioligand for the receptor).

KKA^y mice = test: KKAy mice on high fat diet, 14-day oral gavage BID; assay type: in vivo, mouse
Procedure: 52 male KKA^y mice are obtained commercially (e.g., from Clea Japan) at an age of 6 weeks and put on a high fat diet upon arrival. Individual mice were housed in IVC Type II cages during both the acclimatization and the experimental phase. Both food (high fat diet) and water are supplied ad libitum.
1 animal per cage. […] Lights on at 06:00 a.m. Temperature: 21-25° C. Relative humidity target range: 55-60%.
Mice were randomized into treatment groups according to their 4-h fasting blood glucose.
4 hours after the last administration, non-fasting conditions.
Gamma irradiated high fat diet is commercially available (e.g., Research Diets, Inc. New Brunswick, N.J. (Product # D12266BI)).
Blood is collected into heparin containing glass capillaries which are subsequently centrifuged in a “Haematokrit 24” centrifuge (Hettich) at 15′200×g for 10 minutes at room temperature to obtain the hematocrit value.
The following serum parameters are determined on a COBAS INTEGRA 800 auto analyzer (Roche Diagnostics, Switzerland) using the reagents and protocols provided by the supplier.
All measurements are made on Day 14 of administration, except for the food intake and body weight measurements that are made on Day 12.

[4] = 53 mg/kg BID oral gavage, Day 12, mean ± S.E.M.
[5] = 53 mg/kg BID oral gavage, Day 14, mean ± S.E.M.
[6] = 14-day BID, enoic acid 53 mg/kg, rosiglitazone 5 mg/kg, Compounds 3 and 13 dose not stated

**Q.** How did the IC50 [1] turn out when `O=C(O)CC/C=C\C[C@@H]1CO[C@H](c2ccccc2Cl)O[C@@H]1c1ccccc1O` [Compound C, (Z)-6-((2S,4S,5R)-2-(2-chlorophenyl)-4-(2-hydroxyphenyl)-1,3-dioxan-5-yl)hex-4-enoic acid] was run?
**A.** 310 nM

**Q.** And the Occlusion time ([2]; 30 mg/kg in vehicle)?
**A.** slightly prolongs the occlusion time as compared to aspirin (p=0.024), but has no effect as compared to vehicle

**Q.** What about the Total blood flow ([2]; 30 mg/kg in vehicle) of the same compound?
**A.** no effect on total blood flow

**Q.** And the Occlusion time ([2]; 100 mg/kg in vehicle)?
**A.** prolongs the occlusion time versus aspirin (p=0.0002), but not versus vehicle only (p=0.095)

**Q.** And the Total blood flow ([2]; 100 mg/kg in vehicle)?
**A.** slightly improved total blood flow as compared to aspirin (p=0.055), but not as compared to vehicle (p=0.45)

**Q.** And the “Blood flow in the time window 0-10 min” value ([2]; 100 mg/kg in vehicle, 0-10 min)?
**A.** significantly higher flow as compared to aspirin (p=0.0002) but not as compared to vehicle only (p=0.11)

**Q.** What about the Ki ([3]; Cheng Prusoff, read-out: PPARγ binding Ki) of the same compound?
**A.** 1.8 µM and 4.3 µM

**Q.** And the IC50 ([3]; read-out: PPARγ binding IC50)?
**A.** 4.9 µM and 12 µM

**Q.** What about the “Body Weight” value (KKA^y mice; [4]) of the same compound?
**A.** 45.4 ± 1.0 g

**Q.** And the “Food Intake” value (KKA^y mice; [4])?
**A.** 5.0 ± 0.6 g/day

**Q.** What about the ALP (KKA^y mice; [5]) of the same compound?
**A.** 21.5 ± 1.6 dU/L

**Q.** And the ALT (KKA^y mice; [5])?
**A.** 5.1 ± 0.6 dU/L

**Q.** And the AST (KKA^y mice; [5])?
**A.** 7.7 ± 1.0 dU/L

**Q.** What about the FFA (KKA^y mice; [5]) of the same compound?
**A.** 1.7 ± 0.3 mM

**Q.** And the Fructosamine (KKA^y mice; [5])?
**A.** 0.41 ± 0.03 mM

**Q.** What about the HDL (KKA^y mice; [5]) of the same compound?
**A.** 3.1 ± 0.2 mM

**Q.** And the HbA1C (KKA^y mice; [5])?
**A.** 7.8 ± 0.3 %

**Q.** And the Heart weight (KKA^y mice; [5])?
**A.** 208.5 ± 7.6 mg

**Q.** And the Hematocrit (KKA^y mice; [5])?
**A.** 40.1 ± 1.6%

**Q.** What about the Insulin (KKA^y mice; [5]) of the same compound?
**A.** 39.1 ± 8.8 µg/L

**Q.** What about the “Serum Glucose” value (KKA^y mice; [5]) of the same compound?
**A.** 31.9 ± 3.6 mM

**Q.** What about the TG (KKA^y mice; [5]) of the same compound?
**A.** 2.0 ± 0.3 mM

**Q.** What about the “Total Cholesterol” value (KKA^y mice; [5]) of the same compound?
**A.** 3.6 ± 0.3 mM

**Q.** What about the “Body weight (in words)” value (KKA^y mice; [6]) of the same compound?
**A.** do not alter body weight

**Q.** What about the “Circulating glucose levels (in words)” value (KKA^y mice; [6]) of the same compound?
**A.** decreased

**Q.** What about the “FFA (in words)” value (KKA^y mice; [6]) of the same compound?
**A.** decreases the FFA

**Q.** What about the “HbA1c levels (in words)” value (KKA^y mice; [6]) of the same compound?
**A.** decreased

**Q.** And the “Heart weight (in words)” value (KKA^y mice; [6])?
**A.** no effect on heart weight
